Patent US20050153033A1, “Lactic acid bacteria for the treatment of food” (priority 2003, published 2005)

Tested on: C. maltaromaticum strains (CB1, CB2, CB3, LV17, UAL26, ATCC 35586 and ATCC43225)
Test: Antibiotic resistance, overall statement for the strains tested
Assay type: cell-based, Carnobacterium maltaromaticum
Conditions: overall statement on Table 3
Text: The strains specified in this GRAS document (e.g., Carnobacterium maltaromaticum strains CB1, CB2, CB3, LV17, UAL26, ATCC 35586 AND ATCC43225) have been tested for their resistance to 27 antibiotics (Table 3; Griffiths Labs, 2004).

Molecule | Sensitivity of the C. maltaromaticum strains tested, overall
O=C(N[C@H](CO)[C@H](O)c1ccc([N+](=O)[O-])cc1)C(Cl)Cl [Chloramphenicol] | sensitive
O=C(O)c1cn(C2CC2)c2cc(N3CCNCC3)c(F)cc2c1=O [Ciprofloxacin] | sensitive
CC[C@H]1OC(=O)[C@H](C)[C@@H](O[C@H]2C[C@@](C)(OC)[C@@H](O)[C@H](C)O2)[C@H](C)[C@@H](O[C@@H]2O[C@H](C)C[C@H](N(C)C)[C@H]2O)[C@](C)(O)C[C@@H](C)C(=O)[C@H](C)[C@@H](O)[C@]1(C)O [Erythromycin] | sensitive
CCN[C@@H]1C[C@H](N)[C@@H](O[C@H]2OC(CN)=CC[C@H]2N)[C@H](O)[C@H]1O[C@H]1OC[C@](C)(O)[C@H](NC)[C@H]1O [Netilmicin] | sensitive
CO[C@H]1/C=C/O[C@@]2(C)Oc3c(C)c(O)c4c(O)c(c(/C=N/N5CCN(C)CC5)c(O)c4c3C2=O)NC(=O)/C(C)=C\C=C\[C@H](C)[C@H](O)[C@@H](C)[C@@H](O)[C@@H](C)[C@H](OC(C)=O)[C@@H]1C [Rifampin] | sensitive
NC[C@H]1O[C@H](O[C@H]2[C@H](O)[C@@H](O[C@H]3O[C@H](CO)[C@@H](O)[C@H](N)[C@H]3O)[C@H](N)C[C@@H]2N)[C@H](N)C[C@@H]1O [Tobramycin] | sensitive
Amoxicillin + clavulanic acid | sensitive
Gentamicin | sensitive
